Source: US7332501B2, “Indol-3-yl-carbonyl-spiro-piperidine derivatives as V1a receptor antagonists” (Hoffmann-La Roche Inc., priority 2005, dated 2008)
Where a name gives a salt, the structure may show the parent alone.

target: T1, human V1a receptor (Homo sapiens, UniProt P37288); test: human V1a receptor binding (3H-Vasopressin SPA, HEK293 membranes); details: displacement of 4 nM 3H-Vasopressin, membranes of HEK293 cells transiently transfected with human V1a receptor; Ki from IC50 by Cheng-Prussoff
T1 construct: expressed in transfected cells; host or cells: HEK293 cells, transiently transfected; cell membranes
T1 sequence (P37288 whole entry): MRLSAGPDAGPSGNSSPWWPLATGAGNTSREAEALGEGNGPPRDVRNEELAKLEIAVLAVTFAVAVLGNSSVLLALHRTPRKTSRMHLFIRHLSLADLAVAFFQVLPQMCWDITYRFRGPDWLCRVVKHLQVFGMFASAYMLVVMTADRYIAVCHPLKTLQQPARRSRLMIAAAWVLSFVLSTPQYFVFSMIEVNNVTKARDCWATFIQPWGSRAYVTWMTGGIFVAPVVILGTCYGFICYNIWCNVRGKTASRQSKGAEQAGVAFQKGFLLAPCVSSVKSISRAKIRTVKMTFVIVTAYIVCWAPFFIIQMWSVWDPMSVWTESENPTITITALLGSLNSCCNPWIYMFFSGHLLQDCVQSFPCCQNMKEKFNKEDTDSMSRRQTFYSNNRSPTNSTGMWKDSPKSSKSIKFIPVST
Summary of the method: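 Transiently transfected HEK293 membranes on yttrium silicate SPA beads in Tris binding buffer (120 mM NaCl, 5 mM KCl, 2 mM CaCl2, 10 mM MgCl2). 3H-vasopressin added as 4 nM working solution; excess cold vasopressin set non-specific binding. 1 h at room temperature, then counting; Ki from fitted IC50 via Cheng-Prusoff.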

| SMILES | Ki [nM] |
| --- | --- |
| NCCNC(=O)Cn1cc(C(=O)N2CCC3(CC2)OCc2ccccc23)c2ccc(Cl)cc21 [Example 252, N-(2-Aminoethyl)-2-[6-chloro-3-(1′H,3H-spiro[2-benzofuran-1,4′-piperidin]-1′-ylcarbonyl)-1H-indol-1-yl]acetamide] | 2.3 |
| NCCn1cc(C(=O)N2CCC3(CC2)OCc2ccccc23)c2ccc(Cl)cc21 [Example 253, 2-[6-Chloro-3-(1′H,3H-spiro[2-benzofuran-1,4′-piperidin]-1′-ylcarbonyl)-1H-indol-1-yl]ethanamine] | 7.7 |
| CNCCn1cc(C(=O)N2CCC3(CC2)OCc2ccccc23)c2ccc(Cl)cc21 [Example 254, 2-[6-Chloro-3-(1′H,3H-spiro[2-benzofuran-1,4′-piperidin]-1′-ylcarbonyl)-1H-indol-1-yl]-N-methylethanamine] | 1.9 |
| CNC(=O)Cn1cc(C(=O)N2CCC3(CC2)OCc2ccccc23)c2ccc(Cl)cc21 [Example 255, 2-[6-Chloro-3-(1′H,3H-spiro[2-benzofuran-1,4′-piperidin]-1′-ylcarbonyl)-1H-indol-1-yl]-N-methylacetamide] | 1.4 |
| O=C(c1cn(CCN2CCOCC2)c2cc(Cl)ccc12)N1CCC2(CC1)OCc1ccccc12 [Example 256, 1′-{[6-Chloro-1-(2-morpholin-4-ylethyl)-1H-indol-3-yl]carbonyl}-3H-spiro[2-benzofuran-1,4′-piperidine]] | 2.4 |
| O=C(c1cn(CCCN2CCOCC2)c2cc(Cl)ccc12)N1CCC2(CC1)OCc1ccccc12 [Example 257, 1′-{[6-Chloro-1-(3-morpholin-4-ylpropyl)-1H-indol-3-yl]carbonyl}-3H-spiro[2-benzofuran-1,4′-piperidine]] | 3.1 |
| O=C(c1cn(CC2CO2)c2cc(Cl)ccc12)N1CCC2(CC1)OCc1ccccc12 (centres unmarked) [Example 258, 1′-{[6-Chloro-1-(oxiran-2-ylmethyl)-1H-indol-3-yl]carbonyl}-3H-spiro[2-benzofuran-1,4′-piperidine]] | 3.7 |
| O=C(c1cn(CCO)c2cc(Cl)ccc12)N1CCC2(CC1)OCc1ccccc12 [Example 259, 2-[6-Chloro-3-(1′H,3H-spiro[2-benzofuran-1,4′-piperidin]-1′-ylcarbonyl)-1H-indol-1-yl]ethanol] | 2.6 |
| Cc1cc(Cn2cc(C(=O)N3CCC4(CC3)OCc3ccccc34)c3ccc(Cl)cc32)ccn1 [Example 260, 1′-({6-Chloro-1-[(2-methylpyridin-4-yl)methyl]-1H-indol-3-yl}carbonyl)-3H-spiro[2-benzofuran-1,4′-piperidine]] | 2.8 |
| O=C(c1cn(C[C@H]2CCCNC2)c2cc(Cl)ccc12)N1CCC2(CC1)OCc1ccccc12 [Example 261, 1′-({6-Chloro-1-[(3S)-piperidin-3-ylmethyl]-1H-indol-3-yl}carbonyl)-3H-spiro[2-benzofuran-1,4′-piperidine]] | 1.7 |
| O=C(c1cn(CCNO)c2cc(Cl)ccc12)N1CCC2(CC1)OCc1ccccc12 [Example 262, 2-[6-Chloro-3-(1′H,3H-spiro[2-benzofuran-1,4′-piperidin]-1′-ylcarbonyl)-1H-indol-1-yl]-N-hydroxyethanamine] | 4.3 |
| O=C(c1cn(CC2CCOCC2)c2cc(Cl)ccc12)N1CCC2(CC1)OCc1ccccc12 [Example 263, 1′-{[6-Chloro-1-(tetrahydro-2H-pyran-4-ylmethyl)-1H-indol-3-yl]carbonyl}-3H-spiro[2-benzofuran-1,4′-piperidine]] | 1.7 |
| CN1CCC(Cn2cc(C(=O)N3CCC4(CC3)OCc3ccccc34)c3ccc(Cl)cc32)C1 (centres unmarked) [Example 264, 1′-({6-Chloro-1-[(1-methylpyrrolidin-3-yl)methyl]-1H-indol-3-yl}carbonyl)-3H-spiro[2-benzofuran-1,4′-piperidine]] | 1.8 |
| CN1CCC[C@H](Cn2cc(C(=O)N3CCC4(CC3)OCc3ccccc34)c3ccc(Cl)cc32)C1 [Example 265, 1′-[(6-Chloro-1-{[(3S)-1-methylpiperidin-3-yl]methyl}-1H-indol-3-yl)carbonyl]-3H-spiro[2-benzofuran-1,4′-piperidine]] | 1.4 |
| O=C(c1cn(CC2CCNC2)c2cc(Cl)ccc12)N1CCC2(CC1)OCc1ccccc12 (centres unmarked) [Example 266, 1′-{[6-Chloro-1-(pyrrolidin-3-ylmethyl)-1H-indol-3-yl]carbonyl}-3H-spiro[2-benzofuran-1,4′-piperidine]] | 2.7 |
| CN1CCC[C@H]1Cn1cc(C(=O)N2CCC3(CC2)OCc2ccccc23)c2ccc(Cl)cc21 [Example 268] | 0.07 |
| CN1CCC[C@@H]1Cn1cc(C(=O)N2CCC3(CC2)OCc2ccccc23)c2ccc(Cl)cc21 [Example 269] | 1 |
| CC(=O)NCCn1cc(C(=O)N2CCC3(CC2)OCc2ccccc23)c2ccc(Cl)cc21 [Example 270, N-{2-[6-Chloro-3-(1′H,3H-spiro[2-benzofuran-1,4′-piperidin]-1′-ylcarbonyl)-1H-indol-1-yl]ethyl}acetamide] | 1.3 |
| CS(=O)(=O)NCCn1cc(C(=O)N2CCC3(CC2)OCc2ccccc23)c2ccc(Cl)cc21 [Example 271, N-{2-[6-Chloro-3-(1′H,3H-spiro[2-benzofuran-1,4′-piperidin]-1′-ylcarbonyl)-1H-indol-1-yl]ethyl}methanesulfonamide] | 1.5 |
| CC(=O)N(C)CCn1cc(C(=O)N2CCC3(CC2)OCc2ccccc23)c2ccc(Cl)cc21 [Example 272, N-{2-[6-Chloro-3-(1′H,3H-spiro[2-benzofuran-1,4′-piperidin]-1′-ylcarbonyl)-1H-indol-1-yl]ethyl}-N-methylacetamide] | 1.3 |
| CN(CCn1cc(C(=O)N2CCC3(CC2)OCc2ccccc23)c2ccc(Cl)cc21)S(C)(=O)=O [Example 273, N-{2-[6-Chloro-3-(1′H,3H-spiro[2-benzofuran-1,4′-piperidin]-1′-ylcarbonyl)-1H-indol-1-yl]ethyl}-N-methylmethanesulfonamide] | 1.1 |
| CC(C)(C)OC(=O)N1CCn2c(c(C(=O)N3CCC4(CC3)OCc3ccccc34)c3ccccc32)C1 [Example 274, tert-Butyl 10-(1′H,3H-spiro[2-benzofuran-1,4′-piperidin]-1′-ylcarbonyl)-3,4-dihydropyrazino[1,2-a]indole-2(1H)-carboxylate] | 25.1 |
| O=C(c1c2n(c3ccccc13)CCNC2)N1CCC2(CC1)OCc1ccccc12 [Example 275, 1′-(1,2,3,4-Tetrahydropyrazino[1,2-a]indol-10-ylcarbonyl)-3H-spiro[2-benzofuran-1,4′-piperidine]hydrochloride] | 15.7 |
| CN1CCn2c(c(C(=O)N3CCC4(CC3)OCc3ccccc34)c3ccccc32)C1 [Example 276, 1′-[(2-Methyl-1,2,3,4-tetrahydropyrazino[1,2-a]indol-10-yl)carbonyl]-3H-spiro[2-benzofuran-1,4′-piperidine]] | 12 |
| Cc1[nH]c2cc(Cl)ccc2c1C(=O)N1CCC2(CC1)OCc1ccccc12 [Example 277, 1′-[(6-Chloro-2-methyl-1H-indol-3-yl)carbonyl]-3H-spiro[2-benzofuran-1,4′-piperidine]] | 5.2 |
| O=C(c1c[nH]c2cc(Cl)ccc12)N1CCC2(CC1)C(=O)Nc1ccc(Br)cc12 [Example 280, 5-Bromo-1′-[(6-chloro-1H-indol-3-yl)carbonyl]spiro[indole-3,4′-piperidin]-2(1H)-one] | 67.6 |
